Activity calls are given as the source filed them.
What was measured:
[1] = target: Albumin (Bos taurus, UniProt P02769); assay: Counterscreen for inhibitors of T-cell receptor (TCR)-CD3 interaction: Fluorescence-based biochemical high throughput dose response assay to identify inhibitors of T-cell receptor (TCR)-CD3 interaction using a TAMRA-labeled BSA probe.; type: functional
[2] = tested on: P388/ADR; assay: cells; type: functional; details: Mus musculus
[3] = tested on: SN12K1; assay: cells; type: functional; details: Homo sapiens, SN12K1
[4] = tested on: P388; assay: cells; type: functional; details: Mus musculus
[5] = activation of miR-122 Renilla sensor silencing – cell-based, Huh7 psiCHECK-miR122, Renilla luciferase, cherry-picked, dose response (AID 651956); type: functional;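 also: huh7 hepatoma cells stably carrying a psiCHECK-2 miR-122 sensor plasmid; renilla luciferase signal reporting endogenous miR-122 activity after 48 h compound exposure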
[6] = intracellular Trypanosoma cruzi inhibitors in host cells – cell-based, plate reader, cherry-pick samples, set 3, dose response (AID 651818); type: functional;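 also: compounds incubated with infected cells for about four days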
[7] = target: T1, Fatty acid synthase (Homo sapiens, UniProt P49327); assay: inhibition of human FAS-TE enzyme activity – biochemical, endpoint fluorescence intensity, uHTS hits, dose response (AID 624327); type: functional;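 also: fluorescence from hydrolysis of an O-methyl fluorescein acyl ester substrate by the enzyme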
[8] = fluconazole-exposed Candida albicans growth modulators – fluorescence, retest, confirmation (AID 2467); type: functional, cell-based
[9] = tested on: Streptococcus; assay: GAS UMAA2166 growth inhibition – luminescence, BacTiterGlo, counter-screen for streptokinase expression inhibitor project, dose response (AID 1915); type: functional, organism-based;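 also: potency for reduction of bacterial viability or growth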
[10] = NIH-3T3 fibroblast cytotoxicity, dose response, cytotoxicity control, cell-based, fluorescence, Alamar Blue, secondary assay (AID 2327); type: functional;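 also: NIH-3T3 mouse fibroblasts cultured with fluconazole at 8 µg/mL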
[11] = tested on: Streptococcus sp. 'group A'; assay: Streptococcus pyogenes SK(-)GAS viability under kanamycin – luminescence, BacTiterGlo, confirmation, counter-screen for streptokinase expression inhibitor project, dose response (AID 1900); type: functional, organism-based
[12] = target: T1, Fatty acid synthase; assay: inhibition of human FAS-TE enzyme activity – biochemical, kinetic fluorescence intensity, dose response (AID 624326); type: functional;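 also: rate of fluorescence rise from hydrolysis of a fluorogenic O-methyl fluorescein ester substrate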

T1 sequence (P49327 whole entry): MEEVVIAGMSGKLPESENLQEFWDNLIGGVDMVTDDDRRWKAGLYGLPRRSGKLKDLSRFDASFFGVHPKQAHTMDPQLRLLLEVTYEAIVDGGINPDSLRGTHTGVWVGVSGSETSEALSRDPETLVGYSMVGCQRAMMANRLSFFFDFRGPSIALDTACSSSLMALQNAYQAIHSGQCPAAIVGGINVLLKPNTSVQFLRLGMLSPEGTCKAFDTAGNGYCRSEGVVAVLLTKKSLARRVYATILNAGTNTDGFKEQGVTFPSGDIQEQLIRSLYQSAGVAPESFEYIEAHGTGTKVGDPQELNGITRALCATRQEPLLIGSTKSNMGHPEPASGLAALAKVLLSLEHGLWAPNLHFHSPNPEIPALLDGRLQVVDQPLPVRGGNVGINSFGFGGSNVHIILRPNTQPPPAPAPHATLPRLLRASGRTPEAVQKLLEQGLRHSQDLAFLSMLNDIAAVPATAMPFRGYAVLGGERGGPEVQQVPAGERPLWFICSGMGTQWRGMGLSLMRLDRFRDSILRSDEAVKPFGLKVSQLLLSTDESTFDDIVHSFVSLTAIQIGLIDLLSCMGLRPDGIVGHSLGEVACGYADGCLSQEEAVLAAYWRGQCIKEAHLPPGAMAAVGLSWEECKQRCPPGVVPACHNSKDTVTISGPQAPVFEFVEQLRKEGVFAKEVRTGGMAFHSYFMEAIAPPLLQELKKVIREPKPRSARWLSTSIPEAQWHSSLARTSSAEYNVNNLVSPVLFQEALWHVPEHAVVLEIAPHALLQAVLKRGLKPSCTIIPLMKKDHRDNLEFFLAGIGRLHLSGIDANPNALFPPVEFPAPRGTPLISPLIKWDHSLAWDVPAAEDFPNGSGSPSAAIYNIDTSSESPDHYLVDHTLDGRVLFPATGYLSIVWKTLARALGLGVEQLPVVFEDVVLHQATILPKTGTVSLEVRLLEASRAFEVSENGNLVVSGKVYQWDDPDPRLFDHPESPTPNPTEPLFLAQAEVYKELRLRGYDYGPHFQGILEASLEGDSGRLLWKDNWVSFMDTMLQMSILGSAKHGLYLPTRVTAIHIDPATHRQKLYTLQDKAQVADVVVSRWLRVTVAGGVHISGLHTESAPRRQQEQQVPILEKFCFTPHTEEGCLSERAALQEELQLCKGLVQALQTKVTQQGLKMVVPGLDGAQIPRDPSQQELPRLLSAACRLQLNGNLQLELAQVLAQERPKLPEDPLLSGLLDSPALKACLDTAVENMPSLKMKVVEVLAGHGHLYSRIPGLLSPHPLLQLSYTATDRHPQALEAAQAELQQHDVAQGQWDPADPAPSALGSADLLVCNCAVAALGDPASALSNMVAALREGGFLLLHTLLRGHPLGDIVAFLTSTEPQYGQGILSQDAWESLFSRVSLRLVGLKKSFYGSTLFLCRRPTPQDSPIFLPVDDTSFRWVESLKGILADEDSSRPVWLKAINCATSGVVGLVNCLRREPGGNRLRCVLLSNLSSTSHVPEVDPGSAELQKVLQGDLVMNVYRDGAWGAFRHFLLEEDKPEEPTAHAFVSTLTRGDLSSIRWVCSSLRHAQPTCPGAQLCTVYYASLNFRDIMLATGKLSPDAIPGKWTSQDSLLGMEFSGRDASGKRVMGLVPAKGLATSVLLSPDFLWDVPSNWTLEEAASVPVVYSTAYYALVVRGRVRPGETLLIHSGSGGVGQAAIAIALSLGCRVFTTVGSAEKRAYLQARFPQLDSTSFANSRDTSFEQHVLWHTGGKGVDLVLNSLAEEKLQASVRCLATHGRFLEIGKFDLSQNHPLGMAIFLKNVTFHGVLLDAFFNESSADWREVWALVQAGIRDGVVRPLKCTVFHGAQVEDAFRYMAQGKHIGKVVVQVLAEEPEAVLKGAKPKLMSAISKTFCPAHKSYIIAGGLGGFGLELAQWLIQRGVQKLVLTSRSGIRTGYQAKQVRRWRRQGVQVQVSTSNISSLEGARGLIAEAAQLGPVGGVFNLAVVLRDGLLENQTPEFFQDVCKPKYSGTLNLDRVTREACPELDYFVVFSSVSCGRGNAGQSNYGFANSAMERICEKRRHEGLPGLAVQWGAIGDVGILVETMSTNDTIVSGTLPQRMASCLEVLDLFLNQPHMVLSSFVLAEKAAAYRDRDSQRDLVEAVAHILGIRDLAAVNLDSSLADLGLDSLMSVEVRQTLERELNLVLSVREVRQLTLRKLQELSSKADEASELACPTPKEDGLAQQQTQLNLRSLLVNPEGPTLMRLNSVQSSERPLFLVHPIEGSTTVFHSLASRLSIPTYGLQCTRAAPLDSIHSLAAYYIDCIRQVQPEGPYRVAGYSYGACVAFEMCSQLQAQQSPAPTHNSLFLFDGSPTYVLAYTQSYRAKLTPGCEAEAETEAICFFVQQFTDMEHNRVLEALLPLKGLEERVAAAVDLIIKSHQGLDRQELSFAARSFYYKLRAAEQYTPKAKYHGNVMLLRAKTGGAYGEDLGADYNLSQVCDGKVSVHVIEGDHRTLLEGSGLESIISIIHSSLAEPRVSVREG
Chain of Albumin (P02769 whole entry): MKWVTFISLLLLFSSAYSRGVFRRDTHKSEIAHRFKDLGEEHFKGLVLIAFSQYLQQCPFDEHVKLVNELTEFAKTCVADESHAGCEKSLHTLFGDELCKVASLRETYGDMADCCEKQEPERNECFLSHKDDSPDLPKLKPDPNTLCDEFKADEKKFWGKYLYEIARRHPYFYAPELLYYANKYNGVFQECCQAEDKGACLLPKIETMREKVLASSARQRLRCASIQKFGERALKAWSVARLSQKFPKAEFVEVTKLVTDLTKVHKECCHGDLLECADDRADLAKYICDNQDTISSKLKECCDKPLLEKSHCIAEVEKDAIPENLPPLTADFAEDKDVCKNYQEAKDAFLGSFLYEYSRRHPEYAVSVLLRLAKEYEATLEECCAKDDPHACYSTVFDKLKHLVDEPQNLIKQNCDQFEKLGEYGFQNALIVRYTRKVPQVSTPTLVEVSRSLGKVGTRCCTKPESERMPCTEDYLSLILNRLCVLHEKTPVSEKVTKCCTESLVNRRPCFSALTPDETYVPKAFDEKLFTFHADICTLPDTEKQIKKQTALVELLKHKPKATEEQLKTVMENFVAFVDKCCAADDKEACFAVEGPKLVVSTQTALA

## CC(=O)c1cccc(NC(=O)C(OC(=O)c2cccc(S(=O)(=O)N(C)c3ccccc3)c2)c2ccccc2)c1 (centres undefined)
[1]
  IC50: > 94.1 µM (inactive)

## O=C1ON(Cc2ccccc2)C(c2ccccc2)N1c1ccccc1 (centres undefined)
[2]
  GI50: 54 µM (inactive)
[3]
  GI50: > 100 µM (inactive)
[4]
  GI50: 7.45 µM (inactive)

## COC1=C(C)C(=O)C2=C(C1=O)C1C3CC4=C(C(=O)C(OC)=C(C)C4=O)C(CNC(=O)C(C)O)N3C(C#N)C(C2)N1C (centres undefined)
[2]
  GI50: 0.203 µM (active)
[3]
  GI50: < 0.01 µM (active)
[4]
  GI50: < 0.01 µM (active)

## C/C=C/c1ccc([C@@H]2[C@@H](CO)N(C(=O)Cc3cccnc3)[C@H]2CNC(C)=O)cc1
[5]
  AC50: 28.6 µM (active)

## C[C@@H]1CN([C@@H](C)CO)C(=O)c2cccc(NC(=O)Nc3ccc(C(F)(F)F)cc3)c2O[C@H]1CN(C)Cc1ccc(Cl)c(Cl)c1
[6]
  AC50: 0.919 µM (active)

## C[C@H]1CN([C@@H](C)CO)C(=O)c2cc(C#CC3CCCC3)cnc2O[C@H]1CN(C)C(=O)Cc1ccccn1
[5]
  AC50: 21.3 µM (active)

## C[C@@H]1CN([C@H](C)CO)C(=O)Cc2cc(NC(=O)Cc3cn(C)c4ccccc34)ccc2O[C@@H]1CN(C)Cc1ccc(Cl)c(Cl)c1
[6]
  AC50: 5.18 µM (active)

## C[C@H](CO)N1C[C@H](C)[C@H](CN(C)CC2CCCCC2)Oc2ccc(NC(=O)Nc3ccc(C(F)(F)F)cc3)cc2CC1=O
[6]
  AC50: 2.72 µM (active)

## O=C(N/N=C/c1cc([N+](=O)[O-])ccc1O)/C(=C\c1cccs1)NC(=O)c1ccccc1
[1]
  IC50: > 94.1 µM (inactive)
[7]
  IC50: 15.2 µM (active)
[8]
  EC50: 3.32 µM (active)
[9]
  EC50: 2.16 µM (active)
[10]
  EC50: > 160 µM (inactive)
[11]
  EC50: 0.76 µM (active)
[12]
  IC50: 13.8 µM (active)

Source: ChEMBL document CHEMBL1201862, “PubChem BioAssay data set” (2004)
